Assays:
[1] = tested on: HCT116 human colorectal carcinoma cells; experiment: CellTiter-Glo assay (cell viability); format: cell-based; settings: HCT-116, 72 h, HCT116 cells, 3 days, CellTiter-Glo luminescence, read-out: CTG IC50
Method: HCT116 human colorectal carcinoma cells were used in these experiments. HCT116 cells were obtained from ATCC. CellTiter-Glo® Luminescent Cell Viability Assay Reagent was obtained from Promega.
About 3,000 cells were seeded into 96-well plate with 100 μL of media (DMEM supplemented with 10% FBS, 100 units penicillin, and […] streptomycin per mL) the day before the experiment. For compound treatment, the master plate was prepared as follows: 100× compound stocks were prepared in a 96-well plate by 1 to 3 serial dilutions of 0.5 mM DMSO stocks. Each master plate contained serial dilution of 8 compounds, including the control compound E7820. […] of 100× compound stock was added to each well of the assay plate to give final concentrations of […]. Each concentration was tested in triplicate. After 3 days, cell viability was determined using CellTiter-Glo Luminescent Cell Viability Assay Reagent following the manufacturer's recommended protocol. Briefly, […] of CellTiter-Glo reagent was added to each well of the assay plate and the contents were mixed for 3 minutes at 600 rpm on a shaker (Thermomixer R). The plate was immediately placed in a plate reader (Synergy 2) and the luminescence signal (0.5 second per well integration time) was determined. IC50 values were calculated using Dotmatics software.

[2] = target: T1, DCAF15 (DDA1-DDB1ΔB-DCAF15Δpro) (Homo sapiens, UniProt Q66K64, DEL276-383); experiment: DCAF15 displacement assay (displacement FRET, probe PT7795); format: binding; settings: displacement of PT7795 (300 nM), compound 0.01 to 100 μM, 18 hours incubation; read-out: DCAF15 displacement IC50
T1 construct: made in house; host or cells: Sf9 (Bac-to-Bac baculovirus)
Excerpt: (§1) Proteins used for the assays were as follows: Human DDA1 (UniProt:Q9BW61), DDB1 (UniPro: Q16531), and DCAF15 (UniProt: Q66K64) coding sequences were cloned into pFastBac1 vectors and were co-expressed in Sf9 cells using Bac-to-Bac baculovirus expression system (Thermo Fisher Scientific). The expression construct for DCAF15 includes a N-terminal His6-tag to facilitate the purification.
DCAF15 Displacement Assay (Displacement FRET KD)
Synthesis of the probe PT7795 is described in the article.
Binding of PT7795 to DDA1-DDB1AB-DCAF15Δpro was measured by the FRET signal between europium-labeled anti-His antibody (AD0205, Perkin Elmer) that is associated with His-tagged DCAF15 and ALX647 moiety in PT7795. […] After equilibrating for 2-3 hours at 4° C., the plate was removed from the incubator, briefly spun, then read on a Spark 10 (Tecan) at the excitation/emission wavelength of 340 nm/615 nm and 340 nm/665 nm.
Binding of compounds in this disclosure to DCAF15 was measured in a competition by the displacement of PT7795. The concentration of PT7795 was kept at 300 nM while the concentration of a compound was varied from 0.01 to 100 μM. The incubation time was increased to 18 hours for enhanced signal to noise level.
F=Fmin+(Fmax−Fmin)/(1+10^(logIC50−log[Compound])^n) (Equation 2)
The Kds can then be calculated from IC50s using Equation 3 (Cheng-Prusoff equation).

[3] = target: T2, DCAF15 RBM39 ternary complex (Homo sapiens, UniProt Q14498+Q66K64, DEL276-383); experiment: DCAF15 RBM39 complex formation assay (FRET); format: biochemical; settings: FRET ratio, 20 nM DDB1DB/DCAF15, 50 nM RBM39 R1R2, overnight at 4° C.; read-out: DCAF15 RBM39 ternary complex EC50
T2 construct: Amino acids 150 to 331 of RBM39 were cloned into pGEX4T3; GST (from the pGEX4T3 vector, own knowledge) followed by a TEV cleavage site (N); made in house; host or cells: Sf9 baculovirus (DDB1ΔB/DCAF15); E. coli (RBM39 R1R2)
T2 sequence (Q66K64 with tags, fused parts or gaps DEL276-383): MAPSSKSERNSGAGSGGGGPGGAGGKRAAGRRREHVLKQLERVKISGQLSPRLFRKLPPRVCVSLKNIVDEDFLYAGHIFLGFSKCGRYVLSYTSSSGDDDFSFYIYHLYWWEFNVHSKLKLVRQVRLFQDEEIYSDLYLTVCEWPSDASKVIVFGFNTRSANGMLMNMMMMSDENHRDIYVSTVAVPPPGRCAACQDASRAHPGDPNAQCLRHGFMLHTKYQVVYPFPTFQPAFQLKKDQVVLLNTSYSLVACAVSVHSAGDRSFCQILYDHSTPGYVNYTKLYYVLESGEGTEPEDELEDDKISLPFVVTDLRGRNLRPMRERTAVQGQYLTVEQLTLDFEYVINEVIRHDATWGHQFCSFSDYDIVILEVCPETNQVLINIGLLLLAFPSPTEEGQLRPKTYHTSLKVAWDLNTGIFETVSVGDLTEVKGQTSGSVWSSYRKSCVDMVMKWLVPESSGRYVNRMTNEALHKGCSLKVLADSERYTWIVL
T2 sequence (Q14498 150-331, stated change not applied): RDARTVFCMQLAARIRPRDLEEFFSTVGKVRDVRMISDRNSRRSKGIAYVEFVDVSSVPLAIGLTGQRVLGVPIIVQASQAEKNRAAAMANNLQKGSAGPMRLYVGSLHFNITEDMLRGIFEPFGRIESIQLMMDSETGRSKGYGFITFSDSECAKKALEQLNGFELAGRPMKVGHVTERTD
Excerpt: as §1
DCAF15 RBM39 Complex Formation Assay
LANCE Eu-W1024 Anti-6×His and SureLight Allophycocyanin-anti-FLAG antibodies were purchased from Perkin Elmer. Human DDB1DB and His-tagged DCAF15 were co-expressed in baculovirus/sf9 system. […] The His-tagged DCAF15 contains six histidine residues directly preceding the DCAF15 sequence without any linker. An RBM39 fragment containing RRM1 and RRM2 was expressed in E. coli.
A compound of the present disclosure in DMSO (2 μL) was transferred to a 384-well assay plate. Compound was added in 14 points, 3-fold serial dilution (1 μM to 0.6 pico molar) in DMSO. […] FRET assay buffer (25 mM HEPES, pH 7.5, 100 mM NaCl, […], 0.5 mM TCEP, 0.005% Tween-20, 0.2 nM Eu-W1024 Anti-6×His, 50 nM SureLight Allophycocyanin-anti-FLAG, 20 nM DDB1DB/DCAF15, 50 nM RBM39 R1R2) was added and the resulting solution was incubated overnight at 4° C. […] Low signal controls containing no compound and high signal controls containing 10 mM indisulam were measured for each plate.
EC50 values were calculated using Dotmatics template equation for 4-parameter fit.
Results are expressed as % formation using the following equation: […]

| SMILES | IC50 [1] | IC50 [2] | EC50 [3] |
| --- | --- | --- | --- |
| COCCC1Cc2cc(Cl)c3c(Cl)c[nH]c3c2NS1(=O)=O (racemic) [Compound 22, 6,7-dichloro-3-(2-methoxyethyl)-1,3,4,9-tetrahydro-[1,2]thiazino[4,3-g]indole 2,2-dioxide] | 234 nM | 12300 nM | 0.7 nM |
| COCC[C@H]1Cc2cc(Cl)c3c(Cl)c[nH]c3c2NS1(=O)=O (single isomer, unassigned) [Compound 29] | 555 nM | 50500 nM | 1.9 nM |
| COCC[C@@H]1Cc2cc(Cl)c3c(Cl)c[nH]c3c2NS1(=O)=O (single isomer, unassigned) [Compound 30] | 184 nM | 2580 nM | 1.3 nM |
| COCCN1Cc2cc(Cl)c3c(Cl)c[nH]c3c2NS1(=O)=O [Compound 1, 6,7-dichloro-3-(2-methoxyethyl)-1,3,4,9-tetrahydro-[1,2,6] thiadiazino[4,3-g]indole 2,2-dioxide] | 475 nM | 3160 nM | 5.5 nM |
| COCCN1Cc2cc(Cl)c3cc[nH]c3c2NS1(=O)=O [Compound 2, 6-chloro-3-(2-methoxyethyl)-1,3,4,9-tetrahydro-[1,2,6] thiadiazino[4,3-g]indole 2,2-dioxide] | 2230 nM | 51800 nM | 65.8 nM |
| O=S1(=O)NCc2cc(Cl)c3c(Cl)c[nH]c3c2N1 [Compound 3, 6,7-dichloro-1,3,4,9-tetrahydro-[1,2,6]thiadiazino[4,3-g]indole 2,2-dioxide] | 1430 nM | 27800 nM | 8.1 nM |
| O=S1(=O)Nc2c(ccc3c(Cl)c[nH]c23)CN1C1CCCCC1 [Compound 4, 7-chloro-3-cyclohexyl-1,3,4,9-tetrahydro-[1,2,6] thiadiazino[4,3-g]indole 2,2-dioxide] | 943 nM | 58100 nM | 16.1 nM |
| O=S1(=O)CCc2cc(Cl)c3c(Cl)c[nH]c3c2N1 [Compound 5, 6,7-dichloro-1,3,4,9-tetrahydro-[1,2]thiazino[4,3-g]indole 2,2-dioxide] | 789 nM | 20000 nM | 11 nM |
| O=S1(=O)Nc2c(cc(Cl)c3c(Cl)c[nH]c23)CN1Cc1ccccc1 [Compound 6, 3-benzyl-6,7-dichloro-1,3,4,9-tetrahydro-[1,2,6]thiadiazino[4,3-g]indole 2,2-dioxide] | 608 nM | 5260 nM | 3.1 nM |
| O=S1(=O)Nc2c(cc(Cl)c3c(Cl)c[nH]c23)CN1c1ccccc1 [Compound 7, 6,7-dichloro-3-phenyl-1,3,4,9-tetrahydro-[1,2,6] thiadiazino[4,3-g]indole 2,2-dioxide] | 1310 nM | 17400 nM | 8.8 nM |
| COCCN1Cc2cc(Cl)c3c(C#N)c[nH]c3c2NS1(=O)=O [Compound 8, 6-chloro-3-(2-methoxyethyl)-1,3,4,9-tetrahydro-[1,2,6] thiadiazino[4,3-g]indole7-carbonitrile 2,2-dioxide] | 3160 nM | 3340 nM | 6.2 nM |
| CCCC1=Cc2ccc3c(Cl)c[nH]c3c2NS1(=O)=O [Compound 9, 7-chloro-3-propyl-1,9-dihydro-[1,2]thiazino[4,3-g]indole 2,2-dioxide] | 5000 nM | ≥ 100000 nM | 74.7 nM |
| CCCC1Cc2ccc3c(Cl)c[nH]c3c2NS1(=O)=O (stereo not shown) [Compound 10, 7-chloro-3-propyl-1,3,4,9-tetrahydro-[1,2]thiazino[4,3-g]indole 2,2-dioxide] | 5000 nM | ≥ 100000 nM | 16.4 nM |
| O=S1(=O)Nc2c(cc(Cl)c3c(Cl)c[nH]c23)CN1Cc1cccc(Cl)c1 [Compound 11, 6,7-dichloro-3-(3-chlorobenzyl)-1,3,4,9-tetrahydro-[1,2,6] thiadiazino[4,3-g]indole 2,2-dioxide] | 1400 nM | 9720 nM | 2.8 nM |
| O=S1(=O)Nc2c(cc(Cl)c3c(Cl)c[nH]c23)CN1Cc1ccc(Cl)nc1 [Compound 12, 6,7-dichloro-3-((6-chloropyridin-3-yl)methyl)-1,3,4,9-tetrahydro-[1,2,6]thiadiazino[4,3-g]indole 2,2-dioxide] | 125 nM | 1110 nM | 0.7 nM |
| O=C(CN1Cc2cc(Cl)c3c(Cl)c[nH]c3c2NS1(=O)=O)N1CCOCC1 [Compound 92, 2-(6,7-dichloro-2,2-dioxido-4,9-dihydro-[1,2,6]thiadiazino[4,3-g]indol-3(1H)-yl)-1-morpholinoethan-1-one] | – | 965 nM | 0.7 nM |
| C=CCN1Cc2cc(Cl)c3c(Cl)c[nH]c3c2NS1(=O)=O [Compound 93, 3-allyl-6,7-dichloro-1,3,4,9-tetrahydro-[1,2,6] thiadiazino[4,3-g]indole 2,2-dioxide] | – | 773 nM | 1.6 nM |
| O=S1(=O)Nc2c(cc(Cl)c3c(Cl)c[nH]c23)CN1CCC1COC1 [Compound 94, 6,7-dichloro-3-(2-(oxetan-3-yl)ethyl)-1,3,4,9-tetrahydro-[1,2,6] thiadiazino[4,3-g]indole 2,2-dioxide] | – | 362 nM | 2.9 nM |
| O=S1(=O)Nc2c(cc(Cl)c3c(Cl)c[nH]c23)CN1CC1CCCOC1 (stereo not shown) [Compound 95, 6,7-dichloro-3-((tetrahydro-2H-pyran-3-yl)methyl)-1,3,4,9-tetrahydro-[1,2,6] thiadiazino[4,3-g]indole 2,2-dioxide] | – | 94.9 nM | 1.2 nM |
| O=S1(=O)Nc2c(cc(Cl)c3c(Cl)c[nH]c23)CN1CC1CCCCO1 (stereo not shown) [Compound 96, 6,7-dichloro-3-((tetrahydro-2H-pyran-2-yl)methyl)-1,3,4,9-tetrahydro-[1,2,6] thiadiazino[4,3-g]indole 2,2-dioxide] | – | 215 nM | 1.2 nM |
| O=c1cc(CN2Cc3cc(Cl)c4c(Cl)c[nH]c4c3NS2(=O)=O)c(Cl)c[nH]1 [Compound 98, 5-chloro-4-((6,7-dichloro-2,2-dioxido-4,9-dihydro-[1,2,6]thiadiazino [4,3-g]indol-3(1H)-yl)methyl)pyridin-2(1H)-one] | – | 181 nM | 2.3 nM |
| COCCN1Cc2cc(F)c3c(C#N)c[nH]c3c2NS1(=O)=O [Compound 99, 6-fluoro-3-(2-methoxyethyl)-1,3,4,9-tetrahydro-[1,2,6] thiadiazino[4,3-g]indole-7-carbonitrile 2,2-dioxide] | – | 30800 nM | 212 nM |
| COCCN1Cc2ccc3c(C#N)c[nH]c3c2NS1(=O)=O [Compound 100, 3-(2-methoxyethyl)-1,3,4,9-tetrahydro-[1,2,6] thiadiazino[4,3-g]indole-7-carbonitrile 2,2-dioxide] | – | ≥ 100000 nM | 168 nM |

Source: patent US20240294548A1, “TRICYCLIC SULTAMS AND SULFAMIDES AS ANTITUMOR AGENTS” (PELOTON THERAPEUTICS INC., priority 2021, published 2024)
